# From ChEMBL document CHEMBL1287713, “Discovery and selectivity-profiling of 4-benzylamino 1-aza-9-oxafluorene derivatives as lead structures for IGF-1R inhibitors” (Bioorg Med Chem Lett, 2010)
# Assays:
# [1] = Growth inhibition of human NCI60 cells by SBR assay; format: functional
# [2] = target: Vascular endothelial growth factor receptor 2 (Homo sapiens, UniProt P35968); assay: Inhibition of VEGFR2
# [3] = Cytotoxicity against human NCI60 cells by SBR assay; format: functional
# [4] = target: Insulin-like growth factor 1 receptor (Homo sapiens, UniProt P08069); assay: Inhibition of IGF1R
# Sequence of Insulin-like growth factor 1 receptor (P08069 31-736 limits assumed): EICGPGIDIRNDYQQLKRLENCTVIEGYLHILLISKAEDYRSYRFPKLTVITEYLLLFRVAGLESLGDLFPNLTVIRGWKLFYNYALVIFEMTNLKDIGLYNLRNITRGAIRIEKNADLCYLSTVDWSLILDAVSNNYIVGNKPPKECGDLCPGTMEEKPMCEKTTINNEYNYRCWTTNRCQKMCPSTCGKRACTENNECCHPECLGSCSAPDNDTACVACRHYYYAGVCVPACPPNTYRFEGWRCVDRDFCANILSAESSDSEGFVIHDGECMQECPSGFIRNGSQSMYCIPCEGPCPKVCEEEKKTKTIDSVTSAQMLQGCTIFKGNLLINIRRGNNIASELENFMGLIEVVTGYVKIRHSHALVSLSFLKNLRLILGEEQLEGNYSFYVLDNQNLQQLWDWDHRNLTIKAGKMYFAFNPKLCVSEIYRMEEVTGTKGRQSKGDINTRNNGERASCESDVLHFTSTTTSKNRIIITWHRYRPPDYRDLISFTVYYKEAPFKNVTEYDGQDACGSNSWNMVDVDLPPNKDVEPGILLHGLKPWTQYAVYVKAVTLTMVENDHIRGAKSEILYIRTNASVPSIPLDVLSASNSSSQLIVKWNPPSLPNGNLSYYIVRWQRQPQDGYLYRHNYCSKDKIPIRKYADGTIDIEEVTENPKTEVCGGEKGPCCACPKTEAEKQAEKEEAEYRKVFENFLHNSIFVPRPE
# Sequence of Insulin-like growth factor 1 receptor (P08069 741-1367 limits assumed): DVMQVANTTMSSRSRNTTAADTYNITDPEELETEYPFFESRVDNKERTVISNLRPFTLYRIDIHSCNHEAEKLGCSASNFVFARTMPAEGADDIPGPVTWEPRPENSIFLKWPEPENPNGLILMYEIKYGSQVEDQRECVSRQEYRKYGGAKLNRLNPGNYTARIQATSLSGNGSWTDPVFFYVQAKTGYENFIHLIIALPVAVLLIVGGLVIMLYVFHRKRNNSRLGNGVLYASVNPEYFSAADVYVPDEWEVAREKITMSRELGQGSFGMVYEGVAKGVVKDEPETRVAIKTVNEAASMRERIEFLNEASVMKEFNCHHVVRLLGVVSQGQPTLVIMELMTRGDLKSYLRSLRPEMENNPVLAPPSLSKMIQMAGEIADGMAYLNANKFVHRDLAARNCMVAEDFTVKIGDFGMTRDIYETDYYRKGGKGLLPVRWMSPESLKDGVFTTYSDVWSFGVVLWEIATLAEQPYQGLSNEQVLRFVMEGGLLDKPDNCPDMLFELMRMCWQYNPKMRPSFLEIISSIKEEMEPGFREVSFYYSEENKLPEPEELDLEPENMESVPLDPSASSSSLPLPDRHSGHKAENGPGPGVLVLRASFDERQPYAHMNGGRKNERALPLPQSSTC
# [5] = target: Vascular endothelial growth factor receptor 3 (Homo sapiens, UniProt P35916); assay: Inhibition of VEGFR3
# Sequence of Vascular endothelial growth factor receptor 3 (P35916 whole entry): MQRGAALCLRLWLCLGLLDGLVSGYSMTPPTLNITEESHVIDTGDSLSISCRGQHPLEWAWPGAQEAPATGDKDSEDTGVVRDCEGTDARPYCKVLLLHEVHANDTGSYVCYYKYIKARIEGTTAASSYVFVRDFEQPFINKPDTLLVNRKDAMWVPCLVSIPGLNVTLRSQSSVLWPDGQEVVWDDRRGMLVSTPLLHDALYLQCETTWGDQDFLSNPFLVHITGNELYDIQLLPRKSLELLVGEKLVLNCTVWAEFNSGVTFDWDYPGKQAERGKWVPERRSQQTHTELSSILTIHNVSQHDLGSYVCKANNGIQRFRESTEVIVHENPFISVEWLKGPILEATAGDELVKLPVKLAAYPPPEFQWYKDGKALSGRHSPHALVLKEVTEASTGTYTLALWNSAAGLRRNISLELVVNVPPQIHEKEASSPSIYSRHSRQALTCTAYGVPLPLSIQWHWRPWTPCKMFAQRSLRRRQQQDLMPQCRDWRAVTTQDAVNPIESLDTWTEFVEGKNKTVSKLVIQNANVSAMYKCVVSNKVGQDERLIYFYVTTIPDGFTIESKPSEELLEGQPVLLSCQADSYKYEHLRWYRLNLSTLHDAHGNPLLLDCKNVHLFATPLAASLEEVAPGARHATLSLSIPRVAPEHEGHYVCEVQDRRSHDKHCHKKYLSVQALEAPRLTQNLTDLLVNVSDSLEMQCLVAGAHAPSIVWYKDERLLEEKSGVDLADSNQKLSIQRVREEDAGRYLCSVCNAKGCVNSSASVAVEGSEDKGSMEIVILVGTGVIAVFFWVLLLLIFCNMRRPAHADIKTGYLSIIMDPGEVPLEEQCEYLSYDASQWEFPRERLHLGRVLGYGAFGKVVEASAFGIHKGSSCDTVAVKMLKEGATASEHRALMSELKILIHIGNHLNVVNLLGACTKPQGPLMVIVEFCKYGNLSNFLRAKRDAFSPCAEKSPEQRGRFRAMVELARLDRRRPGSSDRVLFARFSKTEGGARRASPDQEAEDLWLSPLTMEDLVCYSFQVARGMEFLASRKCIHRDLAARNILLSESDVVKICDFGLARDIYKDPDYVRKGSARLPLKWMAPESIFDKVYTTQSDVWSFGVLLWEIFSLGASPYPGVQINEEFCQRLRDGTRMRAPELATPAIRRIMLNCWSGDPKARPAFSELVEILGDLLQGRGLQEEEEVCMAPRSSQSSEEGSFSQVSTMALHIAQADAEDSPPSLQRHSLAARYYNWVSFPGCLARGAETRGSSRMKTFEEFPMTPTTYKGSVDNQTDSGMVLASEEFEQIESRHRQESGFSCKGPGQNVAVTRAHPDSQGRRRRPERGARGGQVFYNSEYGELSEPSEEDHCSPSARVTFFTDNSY
# [6] = target: Epidermal growth factor receptor (Homo sapiens, UniProt P00533); assay: Inhibition of EGFR
# [7] = target: Dual specificity tyrosine-phosphorylation-regulated kinase 1A (Homo sapiens, UniProt Q13627); assay: Inhibition of human DYRK1A
# [8] = target: Protein kinase C iota type (Homo sapiens, UniProt P41743); assay: Inhibition of human PKC-iota
# [9] = target: Homeodomain-interacting protein kinase 1 (Homo sapiens, UniProt Q86Z02); assay: Inhibition of human HIPK1
# [10] = target: Serine/threonine-protein kinase PLK1 (Homo sapiens, UniProt P53350); assay: Inhibition of human PLK1
# [11] = target: Cyclin-dependent kinase 4/cyclin D1 (Homo sapiens, UniProt P11802); assay: Inhibition of human CDK4/Cyclin D1; format: protein-complex assay
# [12] = target: Wee1-like protein kinase (Homo sapiens, UniProt P30291); assay: Inhibition of human WEE1
# [13] = target: Aurora kinase C (Homo sapiens, UniProt Q9UQB9); assay: Inhibition of human Aurora C
# Sequence of Aurora kinase C (Q9UQB9 whole entry): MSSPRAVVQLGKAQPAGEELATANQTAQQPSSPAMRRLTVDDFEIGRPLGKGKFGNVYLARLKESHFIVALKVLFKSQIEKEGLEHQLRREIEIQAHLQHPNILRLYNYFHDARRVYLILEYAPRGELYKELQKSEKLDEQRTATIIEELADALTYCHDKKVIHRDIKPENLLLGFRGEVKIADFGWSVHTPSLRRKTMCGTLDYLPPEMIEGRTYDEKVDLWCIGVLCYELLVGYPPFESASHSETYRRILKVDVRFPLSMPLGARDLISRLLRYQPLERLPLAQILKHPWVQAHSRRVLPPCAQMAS
# [14] = target: Tyrosine-protein kinase ABL2 (Homo sapiens, UniProt P42684); assay: Inhibition of human ABL2
# [15] = target: Insulin receptor (Homo sapiens, UniProt P06213); assay: Inhibition of human InsR
# [16] = target: Mitogen-activated protein kinase 3 (Homo sapiens, UniProt P27361); assay: Inhibition of human ERK1
# Sequence of Mitogen-activated protein kinase 3 (P27361 whole entry): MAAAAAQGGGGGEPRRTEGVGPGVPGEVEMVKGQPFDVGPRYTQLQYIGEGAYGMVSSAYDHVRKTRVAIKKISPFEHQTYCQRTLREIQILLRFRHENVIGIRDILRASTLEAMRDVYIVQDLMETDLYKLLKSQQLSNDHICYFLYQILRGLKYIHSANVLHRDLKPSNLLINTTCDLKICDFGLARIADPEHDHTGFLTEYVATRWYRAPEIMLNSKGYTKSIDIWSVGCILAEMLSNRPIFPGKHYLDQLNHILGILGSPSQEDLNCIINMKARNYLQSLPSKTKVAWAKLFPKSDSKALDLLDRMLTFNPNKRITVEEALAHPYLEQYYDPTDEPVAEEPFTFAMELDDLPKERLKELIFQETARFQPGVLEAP
# [17] = target: Interleukin-1 receptor-associated kinase 1 (Homo sapiens, UniProt P51617); assay: Inhibition of human IRAK1
# [18] = target: Serine/threonine-protein kinase VRK1 (Homo sapiens, UniProt Q99986); assay: Inhibition of human VRK1
# [19] = target: Misshapen-like kinase 1 (Homo sapiens, UniProt Q8N4C8); assay: Inhibition of human INK1
# [20] = target: Dual specificity protein kinase CLK1 (Homo sapiens, UniProt P49759); assay: Inhibition of human CLK1
# [21] = target: Aurora kinase A (Homo sapiens, UniProt O14965); assay: Inhibition of human Aurora A
# [22] = target: Serine/threonine-protein kinase Nek3 (Homo sapiens, UniProt P51956); assay: Inhibition of human Nek3
# [23] = target: Insulin receptor-related protein (Homo sapiens, UniProt P14616); assay: Inhibition of human InsRR
# [24] = target: CDK6/cyclin D1 (Homo sapiens, UniProt Q00534); assay: Inhibition of human CDK6/Cyclin D1; format: protein-complex assay
# [25] = target: Protein kinase C gamma type (Homo sapiens, UniProt P05129); assay: Inhibition of human PKC-gamma
# [26] = target: Cyclin-dependent kinase 5/CDK5 activator 1 (Homo sapiens, UniProt Q00535); assay: Inhibition of human CDK5/p25; format: protein-complex assay
# [27] = target: Tyrosine-protein kinase ABL1 (Homo sapiens, UniProt P00519); assay: Inhibition of human ABL1
# [28] = target: Focal adhesion kinase 1 (Homo sapiens, UniProt Q05397); assay: Inhibition of human FAK
# [29] = target: LIM domain kinase 1 (Homo sapiens, UniProt P53667); assay: Inhibition of human LIMK1
# [30] = target: Angiopoietin-1 receptor (Homo sapiens, UniProt Q02763); assay: Inhibition of human TIE2
# [31] = target: Mitogen-activated protein kinase 14 (Homo sapiens, UniProt Q16539); assay: Inhibition of human p38-alpha
# Sequence of Vascular endothelial growth factor receptor 2 (P35968 whole entry): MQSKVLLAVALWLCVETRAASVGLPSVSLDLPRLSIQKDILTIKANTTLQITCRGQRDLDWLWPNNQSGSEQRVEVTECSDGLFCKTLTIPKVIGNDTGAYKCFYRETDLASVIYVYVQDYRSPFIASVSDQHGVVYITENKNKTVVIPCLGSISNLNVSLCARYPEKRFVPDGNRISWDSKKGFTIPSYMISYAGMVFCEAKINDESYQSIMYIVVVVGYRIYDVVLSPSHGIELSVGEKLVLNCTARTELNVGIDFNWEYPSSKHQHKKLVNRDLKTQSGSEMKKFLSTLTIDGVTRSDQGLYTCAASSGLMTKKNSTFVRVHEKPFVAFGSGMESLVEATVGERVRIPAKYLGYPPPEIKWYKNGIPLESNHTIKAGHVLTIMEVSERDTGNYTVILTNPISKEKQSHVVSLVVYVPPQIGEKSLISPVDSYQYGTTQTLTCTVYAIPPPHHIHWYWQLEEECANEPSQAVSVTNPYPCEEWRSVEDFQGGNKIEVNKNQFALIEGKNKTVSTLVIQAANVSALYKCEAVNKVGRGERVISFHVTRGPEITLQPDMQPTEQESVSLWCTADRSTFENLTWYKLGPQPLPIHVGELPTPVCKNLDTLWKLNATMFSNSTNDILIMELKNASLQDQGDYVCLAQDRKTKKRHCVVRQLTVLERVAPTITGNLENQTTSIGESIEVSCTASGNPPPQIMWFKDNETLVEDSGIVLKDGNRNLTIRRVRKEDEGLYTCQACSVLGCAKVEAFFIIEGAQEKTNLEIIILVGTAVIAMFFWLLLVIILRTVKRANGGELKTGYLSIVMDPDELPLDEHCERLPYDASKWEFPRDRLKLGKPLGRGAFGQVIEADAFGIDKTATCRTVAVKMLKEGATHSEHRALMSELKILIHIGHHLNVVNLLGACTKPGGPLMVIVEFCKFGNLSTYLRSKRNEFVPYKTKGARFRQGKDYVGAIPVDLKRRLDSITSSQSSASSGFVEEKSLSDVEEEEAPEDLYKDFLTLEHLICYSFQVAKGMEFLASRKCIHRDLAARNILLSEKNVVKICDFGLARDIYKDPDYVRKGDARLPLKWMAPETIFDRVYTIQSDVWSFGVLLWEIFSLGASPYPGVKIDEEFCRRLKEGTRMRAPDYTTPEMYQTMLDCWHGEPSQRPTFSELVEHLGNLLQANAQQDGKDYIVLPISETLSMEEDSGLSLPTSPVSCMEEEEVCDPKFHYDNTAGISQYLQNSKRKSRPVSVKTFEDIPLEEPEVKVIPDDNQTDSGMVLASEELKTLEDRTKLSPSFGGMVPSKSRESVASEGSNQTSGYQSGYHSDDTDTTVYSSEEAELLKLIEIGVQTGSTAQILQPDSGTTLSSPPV
smiles,measurement,setting,value
COc1cc([C@@H]2c3cc4c(cc3[C@@H](O[C@@H]3O[C@@H]5CO[C@@H](C)O[C@H]5[C@H](O)[C@H]3O)[C@H]3COC(=O)[C@H]23)OCO4)cc(OC)c1O [ETOPOSIDE],GI50,[1],38.9 µM
CCc1c2c(nc3ccc(OC(=O)N4CCC(N5CCCCC5)CC4)cc13)-c1cc3c(c(=O)n1C2)COC(=O)[C@]3(O)CC [IRINOTECAN],GI50,[1],14.1 µM
Clc1ccc(CNc2ccnc3oc4ccccc4c23)cc1,Ki,[2],0.18 µM
same,LC50,[3],> 100 µM
same,Ki,[4],0.11 µM
same,Ki,[5],0.68 µM
same,Ki,[6],0.5 µM
same,GI50,[1],33.9 µM
c1ccc(CNc2ccnc3oc4ccccc4c23)cc1,Ki,[2],0.47 µM
same,Ki,[4],0.37 µM
same,Ki,[5],1.09 µM
same,Ki,[6],0.59 µM
Clc1cccc(CNc2ccnc3oc4ccccc4c23)c1,Ki,[2],> 1000 µM
same,Ki,[4],0.58 µM
same,Ki,[5],> 1000 µM
same,Ki,[6],> 1000 µM
c1ccc(CCNc2ccnc3oc4ccccc4c23)cc1,Ki,[2],2.01 µM
same,Ki,[4],2.11 µM
same,Ki,[5],9.39 µM
same,Ki,[6],3.45 µM
c1cncc(CNc2ccnc3oc4ccccc4c23)c1,Ki,[2],> 1000 µM
same,Ki,[4],> 1000 µM
same,Ki,[5],> 1000 µM
same,Ki,[6],> 1000 µM
c1ccc2c(CNc3ccnc4oc5ccccc5c34)cccc2c1,Ki,[2],0.3 µM
same,Ki,[4],0.57 µM
same,Ki,[5],1.09 µM
same,Ki,[6],0.68 µM
COc1ccc(CNc2ccnc3oc4ccccc4c23)cc1,Ki,[7],> 1000 µM
same,Ki,[8],> 1000 µM
same,Ki,[9],> 1000 µM
same,Ki,[2],> 1000 µM
same,IC50,[10],271 µM
same,IC50,[11],376 µM
same,Ki,[12],> 1000 µM
same,Ki,[13],> 1000 µM
same,Ki,[14],> 1000 µM
same,IC50,[15],622 µM
same,Ki,[16],> 1000 µM
same,Ki,[17],> 1000 µM
same,IC50,[18],129 µM
same,Ki,[4],0.15 µM
same,Ki,[19],> 1000 µM
same,Ki,[20],> 1000 µM
same,Ki,[21],> 1000 µM
same,Ki,[22],> 1000 µM
same,IC50,[23],182 µM
same,Ki,[5],> 1000 µM
same,IC50,[24],129 µM
same,Ki,[25],> 1000 µM
same,Ki,[26],> 1000 µM
same,IC50,[27],392 µM
same,IC50,[28],194 µM
same,IC50,[29],759 µM
same,Ki,[30],> 1000 µM
same,Ki,[31],> 1000 µM
N[C@@H](Cc1ccc(N(CCCl)CCCl)cc1)C(=O)O,GI50,[1],33.1 µM
